Experimental data: patent US8575135B2 (Gilead Sciences, Inc., priority 2011, dated 2013)
Read-outs that look alike come from different tables or passages of the source.

Columns and labels:
Experiment in all cases: microbe, parasite or virus in culture
Conditions in all cases: Hepatitis C virus
[1] = system: stable HCV 2a JFH-1 Rluc replicon cells (L31 present in NS5A); assay type: cell-based
[2] = system: stable HCV 1b RLuc replicon cells (genotype 1b Con1 replicon); assay type: cell-based
[3] = system: stable HCV 1a RLuc replicon cells (genotype 1a H77 replicon); assay type: cell-based
[4] = system: NS5A chimeric genotype 2a JFH-1 replicon with genotype 2b MD2b-1 strain NS5A gene (M31 present); assay type: cell-based, HCV
Outline: (§1)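 Con1 1b replicons carrying 3a S52 or 4a ED43 NS5A with Pi-RLuc reporter were transiently transfected into Huh-Lunet cells; 2b MD2b-1 NS5A (M31) in JFH-1 2a backbone with RLuc-Neo, transient or stable.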

[5] = system: NS5A chimeric genotype 2a JFH-1 replicon with genotype 2a J6 strain NS5A gene (M31 present); assay type: cell-based, HCV
[6] = system: NS5A chimeric genotype 1b Con1 replicon with genotype 4a ED43 strain NS5A gene; assay type: cell-based, HCV
[7] = system: 1a Pi-Rluc replicon with Q30R in genotype 1a NS5A; assay type: cell-based, HCV
Outline: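 Q30R introduced by site-directed mutagenesis into genotype 1a Pi-RLuc replicon; RNA transiently transfected into Huh-7-derived cured-51 cells.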

[8] = system: NS5A chimeric genotype 1b Con1 replicon with genotype 3a S52 strain NS5A gene; assay type: cell-based, HCV
Outline: as §1

Row | SMILES | EC50 ([1]; read-out: 2a JFH) | EC50 ([1]; read-out: 2a JFH (nM)) | EC50 ([2]; read-out: 1b (nM)) | EC50 ([3]; read-out: 1a) | EC50 ([3]; read-out: 1a (nM)) | EC50 ([4]; read-out: 2b) | EC50 ([4]; read-out: 2b (t) (nM)) | EC50 ([5]; read-out: 2a J6) | EC50 ([5]; read-out: 2a Jb (t) (nM)) | EC50 ([7]; read-out: 1a Q30R) | EC50 ([7]; read-out: 1a Q30R (nM)) | EC50 ([8]; read-out: 3a) | EC50 ([4]; read-out: 2b (s) (nM)) | EC50 ([5]; read-out: 2a J6 (s) (nM)) | EC50 ([6]; read-out: 4a (s) (nM)) | further results
1 | CCC(C)[C@H](NC(=O)OC)C(=O)N1C[C@@H](C)CC1c1ncc(-c2ccc3c(c2)COc2cc4c(ccc5nc([C@@H]6CC(COC)CN6C(=O)[C@@H](NC(=O)OC)C(C)C)[nH]c54)cc2-3)[nH]1 (stereo in doubt) [Example QC, Methyl {(2S)-1-[(2S,4S)-2-(9-{2-[(2S,4S)-1-{(2S,3R)-2-[(methoxycarbonyl)amino]-3-methylpentanoyl}-4-methylpyrrolidin-2-yl]-1H-imidazol-5-yl}-1,11-dihydroisochromeno[4′,3′:6,7]naphtho[1,2-d]imidazol-2-yl)-4-(methoxymethyl)pyrrolidin-1-yl]-3-methyl-1-oxobutan-2-yl}carbamate] | < 1 nM | 0.008 nM | 0.014 nM | < 1 nM | 0.012 nM | < 1 nM | 0.317 nM | < 1 nM | 0.157 nM | – | – | – | – | – | – | –
2 | CCC(C)[C@H](NC(=O)OC)C(=O)N1C[C@@H](C)CC1c1ncc(-c2ccc3c(c2)COc2cc4c(ccc5nc([C@@H]6CC(COC)CN6C(=O)[C@@H](NC(=O)OC)C(C)OC)[nH]c54)cc2-3)[nH]1 (stereo in doubt) [Example QD, Methyl {(2S,3R)-1-[(2S,4S)-2-(5-{2-[(2S,4S)-1-[N-(methoxycarbonyl)-O-methyl-L-allothreonyl]-4-(methoxymethyl)pyrrolidin-2-yl]-1,11-dihydroisochromeno[4′,3′:6,7]naphtho[1,2-d]imidazol-9-yl}-1H-imidazol-2-yl)-4-methylpyrrolidin-1-yl]-3-methyl-1-oxopentan-2-yl}carbamate] | < 1 nM | 0.013 nM | 0.03 nM | < 1 nM | 0.025 nM | < 1 nM | 0.193 nM | < 1 nM | 0.103 nM | – | – | – | – | – | – | –
3 | CCC(C)C(NC(=O)OC)C(=O)N1CC(COC)C[C@H]1c1nc2ccc3cc4c(cc3c2[nH]1)OCc1cc(-c2cnc(C3C[C@H](C)CN3C(=O)[C@@H](NC(=O)OC)C(C)CC)[nH]2)ccc1-4 (stereo in doubt) [Example QE, Methyl {(3R)-1-[(2S,4S)-2-(9-{2-[(2S,4S)-1-{(2S,3R)-2-[(methoxycarbonyl)amino]-3-methylpentanoyl}-4-methylpyrrolidin-2-yl]-1H-imidazol-5-yl}-1,11-dihydroisochromeno[4′,3′:6,7]naphtho[1,2-d]imidazol-2-yl)-4-(methoxymethyl)pyrrolidin-1-yl]-3-methyl-1-oxopentan-2-yl}carbamate] | < 1 nM | 0.011 nM | 0.015 nM | < 1 nM | 0.013 nM | < 1 nM | 0.563 nM | < 1 nM | 0.291 nM | – | – | – | – | – | – | –
4 | COC[C@H]1C[C@@H](c2nc3ccc4cc5c(cc4c3[nH]2)OCc2cc(-c3cnc([C@@H]4CC[C@H](C)N4C(=O)[C@@H](NC(=O)OC)[C@@H](C)OC)[nH]3)ccc2-5)N(C(=O)[C@@H](NC(=O)OC)[C@@H](C)OC)C1 [Compound 646] | – | – | – | – | – | – | – | – | – | – | – | – | – | – | – | EC50 ([1]; read-out: 2a JFH (nM) EC50): 0.03 nM; EC50 ([1]; read-out: 2a JFH EC50 range): < 1 nM; EC50 ([2]; read-out: 1b (nM) EC50): 0.109 nM; EC50 ([3]; read-out: 1a (nM) EC50): 0.058 nM; EC50 ([3]; read-out: 1a EC50 range): < 1 nM; EC50 ([4]; read-out: 2b (s) (nM) EC50): 0.262 nM; EC50 ([4]; read-out: 2b (t) (nM) EC50): 0.112 nM; EC50 ([4]; read-out: 2b EC50 range): < 1 nM; EC50 ([5]; read-out: 2a J6 EC50 range): < 1 nM; EC50 ([5]; read-out: 2a Jb (t) (nM) EC50): 0.042 nM; EC50 ([6]; read-out: 4a (s) (nM) EC50): 0.034 nM; EC50 ([6]; read-out: 4a EC50 range): < 1 nM
5 | COC[C@H]1C[C@@H](c2nc3ccc4cc5c(cc4c3[nH]2)OCc2cc(-c3cnc([C@@H]4C[C@H](C)CN4C(=O)[C@@H](NC(=O)OC)[C@@H](C)OC)[nH]3)ccc2-5)N(C(=O)[C@@H](NC(=O)OC)[C@@H](C)OC)C1 [Example NK, Methyl {(2S,3R)-3-methoxy-1-[(2S,4S)-2-[9-(2-{(2S,4S)-1-[N-(methoxycarbonyl)-O-methyl-L-threonyl]-4-methylpyrrolidin-2-yl}-1H-imidazol-5-yl)-1,11-dihydroisochromeno[4′,3′:6,7]naphtho[1,2-d]imidazol-2-yl]-4-(methoxymethyl)pyrrolidin-1-yl]-1-oxobutan-2-yl}carbamate] | < 1 nM | 0.018 nM | 0.081 nM | < 1 nM | 0.049 nM | < 1 nM | 0.154 nM | < 1 nM | 0.056 nM | – | – | – | – | – | – | –
6 | COC(=O)N[C@H](C(=O)N1[C@@H](C)CC[C@H]1c1ncc(-c2ccc3c(c2)COc2cc4c(ccc5nc([C@@H]6C[C@H](C)CN6C(=O)[C@@H](NC(=O)OC)[C@@H](C)OC)[nH]c54)cc2-3)[nH]1)C(C)C [Example NL, Methyl {(2S)-1-[(2S,5S)-2-(5-{2-[(2S,4S)-1-{(2S,3R)-3-methoxy-2-[(methoxycarbonyl)amino]butanoyl}-4-methylpyrrolidin-2-yl]-1,11-dihydroisochromeno[4′,3′:6,7]naphtho[1,2-d]imidazol-9-yl}-1H-imidazol-2-yl)-5-methylpyrrolidin-1-yl]-3-methyl-1-oxobutan-2-yl}carbamate] | < 1 nM | 0.007 nM | 0.013 nM | < 1 nM | 0.011 nM | < 1 nM | 0.034 nM | < 1 nM | 0.043 nM | – | – | – | – | – | – | –
7 | COC(=O)N[C@H](C(=O)N1[C@H](c2nc3ccc4cc5c(cc4c3[nH]2)OCc2cc(-c3cnc(C4CCCN4C(=O)[C@H](NC(=O)OC)c4ccccc4)[nH]3)ccc2-5)C[C@@H]2CCC[C@@H]21)C(C)C (stereo partly drawn) [Example PN, methyl {(1R)-2-[2-(5-{2-[(2S,3aS,6aS)-1-{(2S)-2-[(methoxycarbonyl)amino]-3-methylbutanoyl}octahydrocyclopenta[b]pyrrol-2-yl]-1,11-dihydroisochromeno[4′,3′:6,7]naphtho[1,2-d]imidazol-9-yl}-1H-imidazol-2-yl)pyrrolidin-1-yl]-2-oxo-1-phenylethyl}carbamate] | < 1 nM | 0.009 nM | – | < 1 nM | 0.015 nM | < 1 nM | 0.014 nM | < 1 nM | 0.027 nM | < 1 nM | 0.03 nM | < 1 nM | 0.035 nM | 0.277 nM | 0.02 nM | EC50 ([8]; read-out: 3a (nM)): 0.016 nM; EC50 ([6]; read-out: 4a): < 1 nM; EC50 ([6]; read-out: 4a (t) (nM)): 0.014 nM
8 | COC(=O)N[C@H](C(=O)N1[C@H](c2nc3ccc4cc5c(cc4c3[nH]2)OCc2cc(-c3cnc(C4CCCN4C(=O)[C@@H](NC(=O)OC)C4CCOCC4)[nH]3)ccc2-5)C[C@@H]2CCC[C@@H]21)C(C)C (stereo partly drawn) [Example PP, methyl [(1S)-2-[2-(5-{2-[(2S,3aS,6aS)-1-{(2S)-2-[(methoxycarbonyl)amino]-3-methylbutanoyl}octahydrocyclopenta[b]pyrrol-2-yl]-1,11-dihydroisochromeno[4′,3′:6,7]naphtho[1,2-d]imidazol-9-yl}-1H-imidazol-2-yl)pyrrolidin-1-yl]-2-oxo-1-(tetrahydro-2H-pyran-4-yl)ethyl]carbamate] | < 1 nM | 0.011 nM | – | < 1 nM | 0.014 nM | < 1 nM | 0.038 nM | < 1 nM | 0.061 nM | < 1 nM | 0.043 nM | < 1 nM | 0.11 nM | 0.403 nM | 0.011 nM | EC50 ([8]; read-out: 3a (nM)): 0.019 nM; EC50 ([6]; read-out: 4a): < 1 nM; EC50 ([6]; read-out: 4a (t) (nM)): 0.027 nM
9 | COC[C@H]1C[C@@H](c2ncc(-c3ccc4c(c3)COc3cc5c(ccc6nc([C@@H]7CC[C@H](C)N7C(=O)[C@@H](NC(=O)OC)C(C)C)[nH]c65)cc3-4)[nH]2)N(C(=O)[C@@H](NC(=O)OC)C(C)C)C1 [Example PZ, Methyl {(2S)-1-[(2S,5S)-2-(9-{2-[(2S,4S)-1-{(2S)-2-[(methoxycarbonyl)amino]-3-methylbutanoyl}-4-(methoxymethyl)pyrrolidin-2-yl]-1H-imidazol-5-yl}-1,11-dihydroisochromeno[4′,3′:6,7]naphtho[1,2-d]imidazol-2-yl)-5-methylpyrrolidin-1-yl]-3-methyl-1-oxobutan-2-yl}carbamate] | < 1 nM | 0.005 nM | – | < 1 nM | 0.009 nM | < 1 nM | 0.071 nM | < 1 nM | 0.175 nM | < 1 nM | 0.057 nM | < 1 nM | 0.386 nM | 1.71 nM | 0.025 nM | –
